# Source: US20230210807A1, “USE OF BENZOATE COMPOUND IN TREATMENT OF SARS-COV-2 INFECTIONS” (ACADEMY OF MILITARY MEDICAL SCIENCES, priority 2020, published 2023)
# Entries after “also recorded” stand apart in the source; their conditions may differ.
# Key:
# Vero-E6 cells = experiment: Cytotoxicity test of drugs (CCK-8 kit); conditions: 48 hours; for Cell viability (% of vehicle control): Vero-E6 cells
# SARS-CoV-2 = experiment: Reduction of viral nucleic acid load in SARS-CoV-2 infected Vero E6 cells (qRT-PCR of supernatant); assay type: cell-based, SARS-CoV-2 (nCoV-2019BetaCoV/Wuhan/WIV04/2019 strain); conditions: for Copy number of virus genome: Vero E6 cells, 100TCID50, 48 hours
# MERS-CoV = conditions: in vitro, cited from earlier work
compound,measurement,setting,value
"N=C(N)c1ccc2cc(OC(=O)c3ccc(N=C(N)N)cc3)ccc2c1 [Nafamostat, 6-amidino-2-naphthyl-4-guanidino benzoate]",Cell viability (% of vehicle control),Vero-E6 cells; 0.14 µM,103.25±2.53 % of vehicle control
same,Cell viability (% of vehicle control),Vero-E6 cells; 0.41 µM,106.14±1.77 % of vehicle control
same,Cell viability (% of vehicle control),Vero-E6 cells; 1.23 µM,95.85±2.57 % of vehicle control
same,Cell viability (% of vehicle control),Vero-E6 cells; 3.70 µM,94.88±4.44 % of vehicle control
same,Cell viability (% of vehicle control),Vero-E6 cells; 11.11 µM,93.68±1.83 % of vehicle control
same,Cell viability (% of vehicle control),Vero-E6 cells; 33.33 µM,92.64±2.16 % of vehicle control
same,Cell viability (% of vehicle control),Vero-E6 cells; 100 µM,92.65±3.37 % of vehicle control
same,Cytotoxicity (in words),"Vero-E6 cells; all test concentrations, Vero E6 cells",no cytotoxicity was observed; also recorded: no toxic effect on the cells at all concentrations
same,Copy number of virus genome,SARS-CoV-2; 0.14 µM,1169068894.5±28678551.13
same,Copy number of virus genome,SARS-CoV-2; 0.41 µM,2051893138.5±1115069812.46
same,Copy number of virus genome,SARS-CoV-2; 1.23 µM,2805092897.49±419609425.32
same,Copy number of virus genome,SARS-CoV-2; 3.70 µM,3601892897.5±680084251.56
same,Copy number of virus genome,SARS-CoV-2; 11.11 µM,2116737884±785155013.49
same,Copy number of virus genome,SARS-CoV-2; 33.33 µM,1015568394.5±70116949.22
same,Copy number of virus genome,"SARS-CoV-2; 100 µM, copies per milliliter per method",395904281±285024470.56
same,Viral RNA load in the cells (in words),"SARS-CoV-2; 48 hours after infection by SARS-CoV-2, Vero E6 cells, FIG. 1(a)",can reduce the viral RNA load
same,Inhibition of replication of SARS-CoV-2 virus genome in the infected supernatant (in words),"SARS-CoV-2; concentrations of 100 µM, 33 µM, 11.1 µM and 3.7 µM",could effectively inhibit the replication of SARS-CoV-2 virus genome
same,IC50 relative to that of Camostat (times higher),MERS-CoV; versus Camostat,10 times
same,IC50,MERS-CoV; read-out: IC50 (MERS-CoV infection in vitro),100 nM
